For 8 molecules, TGI and GI50 results are on record in PubChem BioAssay (NCI).

Among the test systems are HOP-62 NSCLC; HOP-92 NSCLC; IGROV1 ovarian; LOX IMVI melanoma; OVCAR-8 ovarian; SK-MEL-5 melanoma; SN12C renal; SNB-75 CNS; U251 CNS; UACC-62 melanoma.
Assay in all cases: growth of human tumour cells (NCI), 48 h

Each structure is given as a SMILES string.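 Step 1: Grow cells in 96-well plates. Step 2: Expose to compound for 48 hours at 5 concentrations. Step 3: Interpolate endpoints linearly; if unreached, use highest concentration. Abbreviation: GI50, concentration required for 50% inhibition of growth. The concentration for full growth arrest is given as TGI.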

Regarding `OC(c1ccccc1)(c1ccccc1)c1ccccn1`, the TGI in the assay with HOP-62 NSCLC, in the assay with HOP-92 NSCLC, with IGROV1 ovarian, in the assay on LOX IMVI melanoma, in the assay on OVCAR-8 ovarian and in the assay with SK-MEL-5 melanoma was over 100 µM each time. The TGI with SN12C renal, in the assay with SNB-75 CNS, in the assay on U251 CNS and in the assay on UACC-62 melanoma was over 100 µM throughout.
As for `CCCc1cc(=O)oc2c(C(=O)CC(C)C)c(O)c(CC=C(C)C)c(O)c12`, the GI50 in the assay on HOP-62 NSCLC was 17.6 µM; in the assay on HOP-92 NSCLC, 1.25 µM; with IGROV1 ovarian, 15.4 µM; in the assay on LOX IMVI melanoma it was 12.9 µM; in the assay on OVCAR-8 ovarian it was 12 µM; with SK-MEL-5 melanoma, 2.53 µM. The GI50 is 8.84 µM with SN12C renal, 10.7 µM in the assay with SNB-75 CNS, 9.19 µM in the assay on U251 CNS and 1.88 µM with UACC-62 melanoma. For the same molecule, the TGI is over 50 µM with HOP-62 NSCLC; 4.15 µM in the assay with HOP-92 NSCLC; over 50 µM in the assay on IGROV1 ovarian; over 50 µM in the assay with LOX IMVI melanoma; over 50 µM in the assay with OVCAR-8 ovarian; 11 µM in the assay with SK-MEL-5 melanoma. In addition, the TGI with SN12C renal is over 50 µM; in the assay with SNB-75 CNS it was 41.8 µM; with U251 CNS, over 50 µM; in the assay with UACC-62 melanoma, 12.1 µM.
As for `O=C(N[C@H](c1ccc(Cl)c(Cl)c1)C1CNC1)c1ccc2cnccc2c1`, the GI50 in the assay with HOP-62 NSCLC is 4.34 µM; with HOP-92 NSCLC, 0.966 µM; in the assay with IGROV1 ovarian, 1.93 µM; in the assay with LOX IMVI melanoma, 3.42 µM; with OVCAR-8 ovarian, 10.4 µM; in the assay with SK-MEL-5 melanoma, 11.1 µM. Further, the GI50 in the assay on SN12C renal is 2.76 µM; in the assay on SNB-75 CNS, 0.405 µM; with U251 CNS it was 4.62 µM; in the assay with UACC-62 melanoma, 5.39 µM. For the same molecule, the TGI is 16.7 µM in the assay on HOP-62 NSCLC; 5.91 µM in the assay on HOP-92 NSCLC; 10.6 µM in the assay with IGROV1 ovarian; 13.9 µM in the assay on LOX IMVI melanoma; 23 µM with OVCAR-8 ovarian; 23.2 µM with SK-MEL-5 melanoma. The TGI in the assay with SN12C renal was 15.7 µM; in the assay on SNB-75 CNS, 3.68 µM; in the assay on U251 CNS, 17.8 µM; in the assay with UACC-62 melanoma, 19.1 µM.
On to `CCOP(=O)(CCP(=O)(OCC)OCC)OCC.C[CH2][Sn]([Cl])([Cl])[CH2]C`, for which the GI50 with HOP-62 NSCLC was over 91.3 µM; with HOP-92 NSCLC, 19.7 µM; with IGROV1 ovarian, over 100 µM; in the assay with LOX IMVI melanoma it was 22 µM; with OVCAR-8 ovarian, over 100 µM; with SK-MEL-5 melanoma, 36.4 µM. The GI50 in the assay with SN12C renal was 48.1 µM; with SNB-75 CNS it was 26.4 µM; with U251 CNS, 37.9 µM; with UACC-62 melanoma it was 34 µM. The TGI in the assay on HOP-62 NSCLC was over 100 µM; in the assay with HOP-92 NSCLC it was 39.2 µM; in the assay with IGROV1 ovarian, over 100 µM; with LOX IMVI melanoma, 47.9 µM; in the assay with OVCAR-8 ovarian, over 100 µM; with SK-MEL-5 melanoma, over 86.7 µM. For the same molecule, the TGI in the assay on SN12C renal is over 69.8 µM; in the assay with SNB-75 CNS it was 69.3 µM; with U251 CNS, over 69.3 µM; with UACC-62 melanoma, 55 µM.
As for `C[N+](C)(C)CCOP(=O)(O)OP(=O)([O-])OCC1CCC(n2ccc(N)nc2=O)O1` (stereo unspecified), the TGI in the assay on HOP-62 NSCLC, in the assay with HOP-92 NSCLC, with IGROV1 ovarian, in the assay on LOX IMVI melanoma, in the assay with OVCAR-8 ovarian and in the assay on SK-MEL-5 melanoma was over 100 µM throughout. In addition, the TGI with SN12C renal, with SNB-75 CNS, in the assay with U251 CNS and in the assay on UACC-62 melanoma was over 100 µM throughout.
In the case of `Clc1ccc(-c2nc3c(-c4ccc(Cl)cc4)nc(-c4ccccc4)cn3c2-c2ccc(Cl)cc2)cc1`, the GI50 was 16 µM in the assay on HOP-62 NSCLC; 14.9 µM with HOP-92 NSCLC; 20.5 µM in the assay with IGROV1 ovarian; over 50 µM with LOX IMVI melanoma; over 50 µM in the assay on OVCAR-8 ovarian; over 50 µM with SK-MEL-5 melanoma. Further, the GI50 was over 50 µM with SN12C renal, 6.56 µM in the assay on SNB-75 CNS, 45.2 µM with U251 CNS and 26 µM in the assay on UACC-62 melanoma. Also, the TGI with HOP-62 NSCLC is over 50 µM; in the assay with HOP-92 NSCLC it was 37.1 µM; with IGROV1 ovarian it was over 50 µM; in the assay on LOX IMVI melanoma it was over 50 µM; in the assay on OVCAR-8 ovarian, over 50 µM; with SK-MEL-5 melanoma, over 50 µM. Further, the TGI in the assay with SN12C renal was over 50 µM; in the assay on SNB-75 CNS, 25.7 µM; in the assay on U251 CNS, over 50 µM; with UACC-62 melanoma, over 50 µM.
`COc1cc(CNC(=O)/C=C/C=C/c2ccc3c(c2)OCO3)ccc1OCc1cn(-c2ccc(Cl)c(Cl)c2)nn1`: the GI50 with HOP-62 NSCLC was 1.79 µM; in the assay with HOP-92 NSCLC it was 1.48 µM; in the assay with IGROV1 ovarian, 1.52 µM; in the assay on LOX IMVI melanoma, 1.78 µM; in the assay on OVCAR-8 ovarian it was 2.35 µM; in the assay on SK-MEL-5 melanoma, 1.77 µM. Also, the GI50 is 1.82 µM with SN12C renal, 1.94 µM in the assay with SNB-75 CNS, 1.65 µM in the assay with U251 CNS and 1.26 µM in the assay with UACC-62 melanoma. Further, the TGI in the assay with HOP-62 NSCLC worked out at 3.86 µM; in the assay with HOP-92 NSCLC it was 3.39 µM; in the assay with IGROV1 ovarian, 3.75 µM; in the assay with LOX IMVI melanoma it was 3.96 µM; in the assay on OVCAR-8 ovarian, 8.15 µM; in the assay with SK-MEL-5 melanoma, 3.69 µM. The TGI in the assay on SN12C renal stood at 4.93 µM; in the assay on SNB-75 CNS, 5.99 µM; with U251 CNS, 3.22 µM; in the assay on UACC-62 melanoma it was 2.65 µM.
As for `COC(=O)[C@]12CC[C@@H](C)[C@H](C)[C@@H]1C1=CC[C@@H]3[C@@]4(C)C[C@@H](OC(=O)c5ccco5)[C@H](O)[C@@](C)(CO)[C@@H]4[C@H](O)C[C@@]3(C)[C@]1(C)CC2`, the GI50 is 2.03 µM in the assay on HOP-62 NSCLC; 2.59 µM in the assay with HOP-92 NSCLC; 2.42 µM in the assay on IGROV1 ovarian; 1.68 µM with LOX IMVI melanoma; 3.37 µM in the assay on OVCAR-8 ovarian; 1.99 µM in the assay on SK-MEL-5 melanoma. The GI50 in the assay with SNB-75 CNS was 2.38 µM; in the assay with U251 CNS it was 1.97 µM. Moreover, the TGI was 4 µM in the assay with HOP-62 NSCLC; 6.19 µM with HOP-92 NSCLC; 6.33 µM with IGROV1 ovarian; 3.1 µM in the assay on LOX IMVI melanoma; 10.4 µM in the assay with OVCAR-8 ovarian; 4.09 µM in the assay with SK-MEL-5 melanoma. The figures for the TGI in the assay on SNB-75 CNS and in the assay with U251 CNS were 11.7 µM and 4.21 µM, respectively.
